Test [1] is described as follows: inhibitors of intracellular T. cruzi replication, confirmation, NIH3T3 host cells, beta-gal luminescence (AID 2044).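 Note: intracellular parasites grown in NIH/3T3 mouse fibroblasts as host cells; luminescent beta-galactosidase reporter signal from transgenic T. cruzi replicating inside host cells; inhibitors lower the luminescence signal.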 Format: functional, cell-based.
The nature of test [2]: cytotoxicity toward NIH3T3 fibroblasts, dose response, counter-screen, cell-based, ATP luminescence, mouse fibroblasts (AID 2010).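 Note: cells exposed to compound for about 90 hours before reading.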 Format: functional. A general note: Counterscreens check selectivity or assay interference.
Test [3] is described as follows: control 3'UTR Renilla luciferase suppression, dose response, counter-screen for Shn3 inhibitor project, cell-based, Clone20-Shn3RL, cherry-picked (AID 624133). The class given is functional.
Another test deals with HEK293. Kind of test: inhibitors of LMP1-driven NF-kB reporter, dose response, cell-based, HEK293, luciferase, cherry-pick (AID 588343). The class given is functional. To be noted: Homo sapiens.
The nature of test [4]: Shn3 3'UTR reporter inhibitors, dose response, cell-based, Clone20 osteoblasts, firefly luciferase, cherry-picked (AID 624132).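 Note: firefly luciferase luminescence from reporter carrying the Shn3 3'UTR in osteoblasts.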 The class given is functional.
Test [5] in a line: HepG2 cell cytotoxicity, dose response, cytotoxicity control for Shn3 inhibitor project, CellTiter-Glo, cherry-picked (AID 624134). Format: functional, cell-based. On the technique in general: ATP-based viability assays read luminescence as a measure of living cells.
For a further test, the system named is SN12K1. The test is described as follows: cells. The class given is functional. To be noted: Homo sapiens.
A further test has as its system P388/ADR. The test is described as follows: cells. The settings on record: Mus musculus. Format: functional.
Another test deals with P388. The test is described as follows: cells. The class given is functional. The settings on record: Mus musculus.
In a further test the target is T1, Protein RecA (Mycobacterium tuberculosis, UniProt P9WHJ3).
T1 sequence (P9WHJ3 whole entry): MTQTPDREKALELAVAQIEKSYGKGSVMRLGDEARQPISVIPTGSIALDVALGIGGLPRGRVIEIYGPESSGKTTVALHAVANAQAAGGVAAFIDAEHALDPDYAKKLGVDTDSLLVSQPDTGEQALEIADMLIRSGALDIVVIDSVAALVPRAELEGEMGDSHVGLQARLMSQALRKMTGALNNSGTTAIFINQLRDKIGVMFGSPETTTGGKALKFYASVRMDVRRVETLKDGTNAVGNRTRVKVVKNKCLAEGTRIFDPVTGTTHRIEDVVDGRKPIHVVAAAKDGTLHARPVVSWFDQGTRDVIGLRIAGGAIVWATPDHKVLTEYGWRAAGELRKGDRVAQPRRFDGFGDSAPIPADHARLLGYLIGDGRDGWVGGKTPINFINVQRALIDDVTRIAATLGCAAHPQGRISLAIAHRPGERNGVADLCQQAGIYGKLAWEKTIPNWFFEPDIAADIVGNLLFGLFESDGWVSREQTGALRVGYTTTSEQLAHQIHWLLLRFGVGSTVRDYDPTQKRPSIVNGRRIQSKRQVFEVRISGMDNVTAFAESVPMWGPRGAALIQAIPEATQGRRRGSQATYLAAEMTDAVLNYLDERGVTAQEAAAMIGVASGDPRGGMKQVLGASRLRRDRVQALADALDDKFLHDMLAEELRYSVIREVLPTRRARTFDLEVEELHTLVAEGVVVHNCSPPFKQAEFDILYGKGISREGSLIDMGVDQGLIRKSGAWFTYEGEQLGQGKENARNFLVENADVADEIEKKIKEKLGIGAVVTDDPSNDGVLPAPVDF
The test is described as follows: Fluorescence Cell-Free Homogeneous Dose Retest to Identify Inhibitors of RecA-Intein Splicing Activity. [Related pubchem assays (depositor defined):AID2097, AID2223, AID489010, AID492950]. The class given is functional.

Test [6] has as its target T2, Replicative DNA helicase DnaB (Mycobacterium tuberculosis, UniProt P9WMR3).
T2 sequence (P9WMR3 whole entry): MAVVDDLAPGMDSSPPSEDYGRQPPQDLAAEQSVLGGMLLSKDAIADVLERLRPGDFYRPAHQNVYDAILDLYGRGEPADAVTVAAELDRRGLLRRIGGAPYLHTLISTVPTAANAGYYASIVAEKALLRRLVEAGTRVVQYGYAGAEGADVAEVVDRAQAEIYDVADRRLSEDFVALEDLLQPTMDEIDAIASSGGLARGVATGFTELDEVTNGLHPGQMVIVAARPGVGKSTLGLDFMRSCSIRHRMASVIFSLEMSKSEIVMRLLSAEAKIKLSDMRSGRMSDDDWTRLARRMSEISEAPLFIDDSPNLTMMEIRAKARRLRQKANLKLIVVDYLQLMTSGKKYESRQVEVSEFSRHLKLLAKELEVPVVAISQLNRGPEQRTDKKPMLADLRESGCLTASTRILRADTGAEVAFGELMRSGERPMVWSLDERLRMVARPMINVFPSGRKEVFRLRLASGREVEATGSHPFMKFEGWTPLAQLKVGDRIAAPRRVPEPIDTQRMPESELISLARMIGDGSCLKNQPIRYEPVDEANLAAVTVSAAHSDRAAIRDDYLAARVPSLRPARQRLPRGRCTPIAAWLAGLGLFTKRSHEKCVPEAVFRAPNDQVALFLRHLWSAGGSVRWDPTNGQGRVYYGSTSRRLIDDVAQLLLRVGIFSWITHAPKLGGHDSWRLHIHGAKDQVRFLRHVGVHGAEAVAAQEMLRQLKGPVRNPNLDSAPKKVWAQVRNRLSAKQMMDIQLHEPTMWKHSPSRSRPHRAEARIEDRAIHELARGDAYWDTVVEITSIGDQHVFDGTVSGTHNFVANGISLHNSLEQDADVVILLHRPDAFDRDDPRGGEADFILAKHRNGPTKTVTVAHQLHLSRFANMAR
Kind of test: DnaB intein splicing inhibitors, dose response, biochemical, cell-free fluorescence (AID 449749). The class given is functional.

The target of test [7] is T3, Heat shock factor protein 1 (Mus musculus, UniProt P38532).
T3 sequence (P38532 whole entry): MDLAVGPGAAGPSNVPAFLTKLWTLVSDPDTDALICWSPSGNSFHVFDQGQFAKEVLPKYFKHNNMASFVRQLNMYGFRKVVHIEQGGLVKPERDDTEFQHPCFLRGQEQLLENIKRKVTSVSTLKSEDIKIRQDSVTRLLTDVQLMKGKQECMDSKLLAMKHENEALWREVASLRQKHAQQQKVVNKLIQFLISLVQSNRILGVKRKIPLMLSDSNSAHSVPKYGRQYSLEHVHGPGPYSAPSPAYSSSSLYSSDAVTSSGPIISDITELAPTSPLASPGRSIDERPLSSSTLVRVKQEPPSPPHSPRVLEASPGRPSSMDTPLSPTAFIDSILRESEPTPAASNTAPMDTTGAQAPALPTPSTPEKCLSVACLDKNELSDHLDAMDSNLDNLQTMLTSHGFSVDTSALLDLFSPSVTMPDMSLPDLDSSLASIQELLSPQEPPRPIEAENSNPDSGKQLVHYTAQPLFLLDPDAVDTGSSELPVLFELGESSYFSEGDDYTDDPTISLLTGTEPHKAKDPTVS
The test is described as follows: HSF1 potentiators in luciferase reporter cells, confirmation, cell-based, NIH3T3, luminescence, dose retest (AID 435004).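 Note: stress induced by proteasome inhibitor MG132 added 30 min after compound; luciferase reporter driven by HSF1 response element in NIH3T3 cells; actives raise luminescence as potentiators of the MG132 stress response.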 The class given is functional. (A reporter such as luciferase makes a cellular process visible.)

The target of test [8] is T4, Microphthalmia-associated transcription factor (Homo sapiens, UniProt O75030).
T4 sequence (O75030 whole entry): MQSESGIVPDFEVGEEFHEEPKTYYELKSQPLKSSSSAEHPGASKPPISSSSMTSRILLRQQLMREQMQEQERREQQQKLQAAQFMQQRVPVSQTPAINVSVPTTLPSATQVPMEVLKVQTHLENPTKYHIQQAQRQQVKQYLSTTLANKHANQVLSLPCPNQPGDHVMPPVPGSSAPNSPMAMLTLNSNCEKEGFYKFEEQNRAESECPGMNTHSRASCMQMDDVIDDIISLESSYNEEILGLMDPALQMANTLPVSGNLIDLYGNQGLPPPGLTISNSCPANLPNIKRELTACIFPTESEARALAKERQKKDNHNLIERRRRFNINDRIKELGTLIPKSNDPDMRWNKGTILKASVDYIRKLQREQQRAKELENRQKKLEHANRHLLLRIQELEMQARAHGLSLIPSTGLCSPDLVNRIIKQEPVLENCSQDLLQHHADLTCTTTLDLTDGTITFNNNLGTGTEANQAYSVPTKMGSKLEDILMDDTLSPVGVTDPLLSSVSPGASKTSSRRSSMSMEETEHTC
Kind of test: TRPM1 promoter luciferase signal decrease, dose response, MITF inhibitor project, cell-based, SK-MEL-5, cherry-picked, set 3 (AID 493073).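 Note: SK-MEL-5 melanoma cells with luciferase driven by the MITF target TRPM1 promoter.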 Format: functional.

The target in test [9] is Heat shock protein HSP 90-alpha (Homo sapiens, UniProt P07900). The class given is functional, organism-based.
The nature of test [10]: inhibitors of HIV Env-driven cell fusion, dose response, cherry-pick (AID 652057). Format: functional, cell-based.
The nature of test [11]: ZM109 Env clade C HIV-1 fusion inhibitors, dose response, HeLa effector, CEM target cells, luciferase, cherry-pick (AID 652058). The class given is functional, cell-based.
The nature of test [12]: inhibitors of clade B AD8 Env fusion, dose response, cell-based, cherry-pick (AID 652062).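 Note: luciferase signal from cell-cell fusion driven by HIV-1 clade B AD8 Env; potency is for inhibitors of fusion seen as a drop in luminescence.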 Format: functional.
Test [13] is described as follows: Luminescence Cell-Based Dose Retest to Confirm Inhibitors of Cancer Stem Cells. [Related pubchem assays (depositor defined):AID2717, AID2721]. The class given is functional. The settings on record: Homo sapiens.

Results on 17 molecules are retold here after ChEMBL document CHEMBL1201862, “PubChem BioAssay data set” (2004).

Usually EC50 stands for the concentration giving half of the maximal effect. The AC50 is the concentration at which the activity in the assay is half-maximal. As usually defined, the GI50 is the concentration giving 50% growth inhibition.

Calls of active or inactive are those of the source. Bounds are passed on as bounds.

As to `Oc1nc(Nc2nc3ccccc3o2)nc2c1CCCC2`, the figures for the concentration for a half-maximal effect (EC50) in test [1] and in test [2] were 1.9 µM (active) and 3.87 µM (active), respectively. The AC50 in test [3] is 5.26 µM (active); in the test with HEK293, 2.05 µM (active); in [4], 7.71 µM (active); in test [5], 9.63 µM (active).
On to `c1ccc2c(c1)OCCc1cn[nH]c1-2`, for which the GI50 with SN12K1, with P388/ADR and in the test with P388 was > 100 µM (inactive) in each case.
For the molecule `COc1ccc2c(c1O)-c1cc(O)cc3c1[C@@H](C2)N(C)CC3`, the figures for the GI50 with SN12K1, with P388/ADR and in the test with P388 were 63.4 µM (inactive), 40.2 µM (inactive) and 9.1 µM (inactive), respectively.
On to `O=C(CCl)Nc1cccc(Oc2ccccc2)c1`, for which the results for the EC50 (on Protein RecA; in [7]) were 4.28 µM (active) and > 260 µM (inactive), respectively. Moreover, the AC50 is 11.9 µM (active) in test [6] and 8.07 µM (active) in test [8].
Take `c1ccc(C(=NNc2nc3ccccc3s2)c2ccccn2)cc1`: the AC50 in test [9] is 16.4 µM (active); in the test on HEK293 it was 3.05 µM (active).
As for `COc1ccc(CNC(=O)N(C)C[C@H]2OCc3ccccc3-c3ccccc3C(=O)N([C@H](C)CO)C[C@@H]2C)cc1`, the AC50 in [10] was 0.826 µM (active); in [11] it was 1.16 µM (active); in [12] it was 3.51 µM (active).
As for `Nc1cccc2c1C1=NNC(=O)CC1C2` (configuration not stated), the GI50 in the test on SN12K1 and with P388 was > 100 µM (inactive) each time.
Turning to `CNC(=O)SCC(N)C(=O)O` (configuration not stated), the GI50 in the test with SN12K1 was 62.2 µM (inactive); with P388/ADR, 16.8 µM (inactive); in the test on P388, 16.5 µM (inactive).
Take `C[C@H](CO)N1C[C@H](C)[C@H](CN(C)S(=O)(=O)c2ccccc2)Oc2ncc(/C=C/c3ccccc3)cc2C1=O`: the AC50 in [11] was 3.51 µM (active).
As to `O=c1c2cnn(-c3ccccc3)c2nc(-c2cccs2)n1-c1ccc(Br)cc1`, the AC50 with HEK293 is 1.77 µM (active).
Turning to `CSc1nc(NC2OC(CO)C(O)C(O)C2O)c(N)c(=O)[nH]1` (configuration not stated), the GI50 in the test on SN12K1, in the test with P388/ADR and in the test with P388 was > 100 µM (inactive) throughout.
Regarding `CSc1nc(CO)c(CO)n1C`, the GI50 in the test on SN12K1, in the test on P388/ADR and with P388 was > 100 µM (inactive) each time.
With `C[C@H](CO)N1C[C@H](C)[C@H](CN(C)S(=O)(=O)c2ccccc2)Oc2ccc(NS(=O)(=O)c3cccs3)cc2CC1=O`, the results for the concentration at half-maximal activity (AC50) in test [10], in test [11] and in test [12] were 0.557 µM (active), 2.13 µM (active) and 12.6 µM (active), respectively.
Consider `Cc1ccccc1NC(=O)C(Cl)=C(Cl)Cl`, for which the AC50 was 6.73 µM (active) in [13] and 22.1 µM (active) in the test on HEK293.
On to `C[C@H](CO)N1C[C@H](C)[C@H](CN(C)CC2CC2)Oc2ccc(NC(=O)Nc3ccc4c(c3)OCO4)cc2CC1=O`, for which the AC50 in test [10] is 4.41 µM (active); in [12], 20.5 µM (active).
Turning to `COc1cccc(-c2cnc3c(c2)C(=O)N([C@H](C)CO)C[C@H](C)[C@H](CN(C)C(=O)Nc2cccc4ccccc24)O3)c1`, the AC50 in test [10] was < 0.26 µM (active); in test [11], 0.284 µM (active); in test [12], 0.407 µM (active).
`CC(=O)Oc1cc2c(cc1OC(C)=O)OCC(c1ccccc1)C2` (configuration not stated): the GI50 is 13.6 µM (inactive) with SN12K1, 4.08 µM (inactive) with P388/ADR and 4.16 µM (inactive) with P388.
